Test results from ChEMBL document CHEMBL2440050 (ACS Med Chem Lett, 2013).

Key:
[1] = system: HCC70; test: Growth inhibition of human HCC70 cells after 72 hrs by MTS assay; type: functional, cell-based; conditions: HCC70, 72 h
[2] = system: HCT-116/VM46; test: Growth inhibition of vinblastine-resistant human HCT116/VM46 cells overexpressing P-gp after 72 hrs by phosphatase assay; type: functional, cell-based; conditions: HCT-116/VM46, 72 h
[3] = system: T47D; test: Ratio of vinblastine IC50 to compound IC50 for human T47D cells by MTS assay; type: functional
[4] = system: HCT-116; test: Growth inhibition of vinblastine-sensitive human HCT116 cells after 72 hrs by MTS assay; type: functional, cell-based; conditions: HCT-116, 72 h
[5] = molecular target: Tubulin (Sus scrofa) (UniProt P02554+P02550); test: Displacement of [3H]-VBL from porcine tubulin after 60 mins relative to control; type: protein assay
Tubulin (Sus scrofa), sequence (P02550 whole entry, looked up): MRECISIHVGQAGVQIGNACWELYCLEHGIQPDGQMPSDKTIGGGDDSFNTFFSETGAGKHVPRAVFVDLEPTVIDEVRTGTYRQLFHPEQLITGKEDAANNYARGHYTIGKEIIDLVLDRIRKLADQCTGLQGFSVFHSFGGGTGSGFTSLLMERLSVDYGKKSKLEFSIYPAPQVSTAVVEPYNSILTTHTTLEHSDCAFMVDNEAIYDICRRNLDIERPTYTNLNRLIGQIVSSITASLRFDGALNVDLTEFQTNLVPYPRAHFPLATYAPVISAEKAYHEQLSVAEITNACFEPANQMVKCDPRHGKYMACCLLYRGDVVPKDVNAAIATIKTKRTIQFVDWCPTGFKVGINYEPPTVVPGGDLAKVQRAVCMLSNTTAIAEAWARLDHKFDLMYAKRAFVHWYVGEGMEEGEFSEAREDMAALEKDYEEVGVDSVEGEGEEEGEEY
Tubulin (Sus scrofa), sequence (P02554 whole entry, looked up): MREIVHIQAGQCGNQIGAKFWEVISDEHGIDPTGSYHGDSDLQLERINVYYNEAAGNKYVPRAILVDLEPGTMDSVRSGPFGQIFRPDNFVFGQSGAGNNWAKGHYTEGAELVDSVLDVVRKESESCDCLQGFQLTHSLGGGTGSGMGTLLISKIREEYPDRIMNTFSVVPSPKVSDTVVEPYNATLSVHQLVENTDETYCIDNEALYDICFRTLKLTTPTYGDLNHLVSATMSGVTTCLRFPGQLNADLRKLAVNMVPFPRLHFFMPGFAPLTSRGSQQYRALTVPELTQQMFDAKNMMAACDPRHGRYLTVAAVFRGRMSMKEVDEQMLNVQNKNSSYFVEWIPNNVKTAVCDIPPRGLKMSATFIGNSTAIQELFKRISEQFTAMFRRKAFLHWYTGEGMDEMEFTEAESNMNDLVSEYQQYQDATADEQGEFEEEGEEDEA

[6] = system: HCC1143; test: Ratio of vinblastine IC50 to compound IC50 for human HCC1143 cells by MTS assay; type: functional
[7] = system: LS174T; test: Ratio of vinblastine IC50 to compound IC50 for human LS 174T cells by MTS assay; type: functional
[8] = system: HCT-116; test: Ratio of IC50 for vinblastine-resistant human HCT116/VM46 cells overexpressing P-gp to IC50 for vinblastine-sensitive human HCT116 cells by MTS assay; type: functional
[9] = Growth inhibition of human SW403 cells after 72 hrs by MTS assay; type: functional, cell-based; conditions: SW-403, 72 h
[10] = system: HCC70; test: Ratio of vinblastine IC50 to compound IC50 for human HCC70 cells by MTS assay; type: functional
[11] = Ratio of vinblastine IC50 to compound IC50 for human LNCaP-FGC cells by MTS assay; type: functional
[12] = system: L1210; test: Ratio of vinblastine IC50 to compound IC50 for mouse L1210 cells by phosphatase assay; type: functional
[13] = system: ZR-75-1; test: Ratio of vinblastine IC50 to compound IC50 for human ZR-75-1 cells by MTS assay; type: functional
[14] = Growth inhibition of human KPL4 cells after 72 hrs by MTS assay; type: functional, cell-based; conditions: KPL4, 72 h
[15] = system: PA-1; test: Growth inhibition of human PA1 cells after 72 hrs by MTS assay; type: functional, cell-based; conditions: PA-1, 72 h
[16] = Ratio of vinblastine IC50 to compound IC50 for human SW403 cells by MTS assay; type: functional
[17] = system: MDA-MB-468; test: Ratio of vinblastine IC50 to compound IC50 for human MDA-MB-468 cells by MTS assay; type: functional
[18] = system: NCI-H520; test: Ratio of vinblastine IC50 to compound IC50 for human NCI-H520 cells by MTS assay; type: functional
[19] = system: HCT-116; test: Ratio of IC50 for vinblastine-resistant human HCT116/VM46 cells overexpressing P-gp to IC50 for vinblastine-sensitive human HCT116 cells by phosphatase assay; type: functional
[20] = system: MDA-MB-468; test: Growth inhibition of human MDA-MB-468 cells after 72 hrs by MTS assay; type: functional, cell-based; conditions: MDA-MB-468, 72 h
[21] = system: HCT-116/VM46; test: Ratio of vinblastine IC50 to compound IC50 for vinblastine-resistant human HCT116/VM46 cells overexpressing P-gp by MTS assay; type: functional
[22] = system: AU565; test: Ratio of vinblastine IC50 to compound IC50 for human AU565 cells by MTS assay; type: functional
[23] = Growth inhibition of human LS 174T cells after 72 hrs by MTS assay; type: functional, cell-based; conditions: LS174T
[24] = system: AU565; test: Growth inhibition of human AU565 cells after 72 hrs by MTS assay; type: functional, cell-based; conditions: AU565, 72 h
[25] = system: NCI-H520; test: Growth inhibition of human NCI-H520 cells after 72 hrs by MTS assay; type: functional, cell-based; conditions: NCI-H520, 72 h
[26] = system: HCC1143; test: Growth inhibition of human HCC1143 cells after 72 hrs by MTS assay; type: functional, cell-based; conditions: HCC1143, 72 h
[27] = Ratio of vinblastine IC50 to compound IC50 for human KPL4 cells by MTS assay; type: functional
[28] = system: HCT-116; test: Ratio of vinblastine IC50 to compound IC50 for vinblastine-sensitive human HCT116 cells by phosphatase assay; type: functional
[29] = system: ZR-75-1; test: Growth inhibition of human ZR-75-1 cells after 72 hrs by MTS assay; type: functional, cell-based; conditions: ZR-75-1, 72 h
[30] = system: T47D; test: Growth inhibition of human T47D cells after 72 hrs by MTS assay; type: functional, cell-based
[31] = system: HCT-116/VM46; test: Ratio of vinblastine IC50 to compound IC50 for vinblastine-resistant human HCT116/VM46 cells overexpressing P-gp by phosphatase assay; type: functional
[32] = Growth inhibition of human LNCaP-FGC cells after 72 hrs by MTS assay; type: functional, cell-based; conditions: LNCaP-Clone-FGC
[33] = system: PA-1; test: Ratio of vinblastine IC50 to compound IC50 for human PA1 cells by MTS assay; type: functional
[34] = system: HCT-116; test: Ratio of vinblastine IC50 to compound IC50 for vinblastine-sensitive human HCT116 cells by MTS assay; type: functional
[35] = system: MCF7; test: Growth inhibition of human MCF7 cells after 72 hrs by MTS assay; type: functional, cell-based; conditions: MCF7, 72 h
[36] = system: L1210; test: Growth inhibition of mouse L1210 cells after 72 hrs by phosphatase assay; type: functional, cell-based; conditions: L1210, 72 h
[37] = system: HCT-116; test: Growth inhibition of vinblastine-sensitive human HCT116 cells after 72 hrs by phosphatase assay; type: functional, cell-based; conditions: HCT-116, 72 h
[38] = system: HCT-116/VM46; test: Growth inhibition of vinblastine-resistant human HCT116/VM46 cells overexpressing P-gp after 72 hrs by MTS assay; type: functional, cell-based; conditions: HCT-116/VM46, 72 h

CC[C@]1(NC(=O)N2Cc3ccccc3C2)C[C@H]2CN(CCc3c([nH]c4ccccc34)[C@@](C(=O)OC)(c3cc4c(cc3OC)N(C)[C@H]3[C@@](O)(C(=O)OC)[C@H](OC(C)=O)[C@]5(CC)C=CCN6CC[C@]43[C@@H]65)C2)C1
IC50 [1]: 0.04 nM | IC50 [2]: 7.5 nM | Ratio IC50 [3]: 10 | IC50 [4]: 0.16 nM | Activity [5]: 41.2% | Ratio IC50 [6]: 10 | Ratio IC50 [7]: 10 | Ratio IC50 [8]: 20 | IC50 [9]: 0.45 nM | Ratio IC50 [10]: 10 | Ratio IC50 [11]: 10 | Ratio IC50 [12]: 10 | Ratio IC50 [13]: 10 | IC50 [14]: 0.04 nM | IC50 [15]: 0.11 nM | Ratio IC50 [16]: 10 | Ratio IC50 [17]: 10 | Ratio IC50 [18]: 10 | Ratio IC50 [19]: 13 | IC50 [20]: 0.39 nM | Ratio IC50 [21]: 10 | Ratio IC50 [22]: 10 | IC50 [23]: 0.45 nM | IC50 [24]: 0.11 nM | IC50 [25]: 0.1 nM | IC50 [26]: 0.09 nM | Ratio IC50 [27]: 10 | Ratio IC50 [28]: 10 | IC50 [29]: 0.45 nM | IC50 [30]: 0.41 nM | Ratio IC50 [31]: 80 | IC50 [32]: 0.24 nM | Ratio IC50 [33]: 10 | Ratio IC50 [34]: 10 | IC50 [35]: > 12.5 nM | IC50 [36]: 0.51 nM | IC50 [37]: 0.6 nM | IC50 [38]: 3.5 nM
